Data: patent US20120309798A1, “Tumour Treatment Agents and Method” (Vivolux AB, priority 2009, published 2012)
Read-outs that look alike come from different tables or passages of the source.

Tests used:
[1] = system: hollow fiber cultures of PHTC from ovarian carcinoma patients; test: In vivo hollow fiber assay, PHTC ovarian carcinoma; design: species or system human; conditions: two PHTC cultures in fibers s.c. in NMRI male mice, single dose 760 μg/mouse s.c., 6 days; P<0.05 and P<0.01
Procedure: (§1) In vivo studies. Cells from two ovarian carcinoma patients and the cell line CEM were cultured inside semi-permeable polyvinylidene fluoride fibers and assessed by the hollow fiber assay (Friberg et al., 2005; Jonsson et al., 2000). The fibers were implanted subcutaneously into NMRI male mice (Scanbur, Sollentuna Sweden), which were treated with a single dose (0.76 mg/mouse) of VLX50 subcutaneously, or vehicle only (n=animals/group). Fibers were retrieved after 6 days and cell density evaluated (FIG. 3a) using the MTT (3-[4,5-dimethylthiazol-2-yl]-2,5-diphenyltetrazolium bromide)-assay (Alley et al. 1988). The method is based on the conversion of MTT to blue formazan crystals by living cells. The formazan was extracted by DMSO as previously described (Jonsson et al. 2000), and optical density (OD) read at 570 nm. Cell density for each fiber on retrieval day was expressed as net growth, defined as (OD retrieval day—OD implantation day)/OD implantation day, i.e. the percent change in cell density in the fibers during the 6 days of in vivo experiment. The animals were observed regarding behavior and weight gain throughout the experiment. Blood samples (200 μl) were obtained through the orbital plexus after anesthetization with isofluran just before euthanasia, and analyzed for hematological parameters. […]

[2] = system: Assorted tumors: one appendix cancer and one pseudomyxomo peritonei; test: FMCA, patient tumor samples, assorted tumors; format: cell-based; conditions: Homo sapiens
Excerpt: (§2) Cell culture. Patient tumor samples (98) and preparations (4) of normal peripheral blood mononuclear cells (PBMC), detailed in Table 1, were used to determine the activity of VLX50 and, for comparison, six other cytotoxic drugs chosen to represent different mechanistic classes.
(§3) The tumor samples were obtained by bone marrow/peripheral blood sampling, routine surgery or diagnostic biopsy. Leukemic cells and PBMCs were isolated by 1.077 g ml-1 Ficoll-Paque centrifugation (Larsson et al., 1992). Tumor tissue from solid tumor samples was minced into small pieces and tumor cells were isolated by collagenase dispersion followed by Percoll density gradient centrifugation (Csoka et al., 1994). […] Cell viability was determined by trypan blue exclusion test and the proportion of tumor cells in the preparation was judged by inspection of May-Grunvald-Giemsa stained cytospin slides (FIG. 1a). […]
(§4) Fluorometric Microculture Cytotoxicity Assay. The Fluorometric Microculture Cytotoxicity Assay, FMCA, described in detail previously (Lindhagen et al., 2008), is based on measurement of fluorescence generated from hydrolysis of fluorescein diacetate (FDA) to fluorescein by cells with intact plasma membranes. […] Quality criteria for a successful assay included a mean coefficient of variation of less than 30% in the control and a fluorescence signal in control wells of more than 5 times the blank. […]

[3] = system: solid and hematological patient tumor samples; test: Relative effect on solid and hematological tumor samples (S/H ratio), FMCA; format: cell-based, human; conditions: n=98 patient samples; FIG. 2b
Excerpt: as §2, §3, §4

MCF-7 cell cultures = test: Effect of extracellular Fe on VLX50 induced cell death; format: cell-based; conditions: MCF-7, extracellular iron added
CCRF-CEM cell line = test: In vivo hollow fiber assay, CCRF-CEM; conditions: CCRF-CEM in fibers s.c. in NMRI male mice, single dose 760 μg/mouse s.c., 6 days; P>0.05
Procedure: as §1

IC50 ([2]; n=2, 72 h FMCA, read-out: Median IC50): 7.8 µM
IC50 ([2]; range over n=2 samples, read-out: IC50 Range): 1.6 to 13.3 µM
SMILES: COCCCNC(=S)N/N=C\c1ccccn1 [VLX50, N1-(3-methoxypropyl)-2-(pyridylmethylidene)-hydrazine-1-carbothioamide]
Growth inhibition (net growth) compared to vehicle [1]: significant growth inhibition
S/H ratio (ratio between total response rates for solid and hematological samples) [3]: 0.73
VLX50 activity on adding extracellular iron (MCF-7 cell cultures): dose-dependent decrease
Difference in net growth between treated group and control group (CCRF-CEM cell line): did not reach statistical significance
